Results: patent publication EP2698385A1, “Detection of synthetic cannabinoids” (priority 2012, dated 2014)
Where two headings read alike, the source gives them in different places.

Assays:
[1] = tested on: antiserum raised to Immunogen I (Hapten A-BTG); experiment: Competitive ELISA microtiter plate assay (Example 19), antiserum raised to Immunogen I, Hapten A-HRP conjugate as detection reagent; assay type: binding, sheep; conditions: for binding to the antibody produced from Immunogen I: result in words
Method: Aqueous solutions of the immunogens prepared in examples 5 and 13 were formulated with Freund's Complete Adjuvant (FCA) to form emulsions consisting of 2mg/ml Immunogen I and 2mg/ml of Immunogen II in 50%(v/v) FCA. Three sheep were immunised with each emulsion (1° immunisations), 0.25ml being intramuscularly injected at four sites in the rump of each animal. Subsequent immunisations (boosts 2-8) contained 1mg/ml Immunogen I and 1mg/ml Immunogen II. All boosts were emulsified in 50%(v/v) Freund's Incomplete Adjuvant (FIA) and administered to the appropriate sheep in the same manner as the 1° immunisations, at monthly intervals. Blood sampling took place 7-14 days after each boost. Each sample was processed to produce antiserum, which was further purified by caprylic acid and ammonium sulphate precipitation to yield an immunoglobulin (Ig) fraction. The Ig fraction was evaluated by competitive ELISA microtiter plate assay, as described in example 19 below.
Example 19: Development of competitive ELISA for JWH synthetic cannabinoids and metabolites. • (a) The wells of an enhanced binding 96 well polystyrene microtiter plate were coated with the Ig fraction of the antiserum raised to Immunogen I (Hapten A-BTG - example 5) and diluted in 10mM Tris, pH8.5 (125µl/well). The appropriate antibody coating concentration was determined using standard ELISA checkerboard techniques. The plate was incubated for 2 hours at 37°C, washed 4 times over a 10-minute period with Tris buffered saline containing Tween 20 (TBST) and tapped dry. Standard solutions of JWH synthetic cannabinoids, metabolites and selected molecules were prepared in TBST and 50µl of each was added to the appropriate wells. 75µl of conjugate (Hapten A-HRP) diluted in Tris buffer containing EDTA, D-mannitol, sucrose, thimerosal and BSA, was added to each of the wells. The appropriate dilution of conjugate was also determined using standard ELISA checkerboard techniques. The plate was incubated at 25°C for 1 hour. The excess unbound conjugate was removed by washing 6 times over a 10-minute period with TBST and tapped dry. 125µl of tetramethylbenzedine (TMB) substrate solution was added to each well of the plate that was then incubated for 15-20 minutes in the dark at room temperature. The reaction was terminated by addition of 125µl of 0.2M sulphuric acid to each well. The absorbance was then measured at 450nm using a microtiter plate reader. Employing each series of standards, calibration curves were generated and these were used to determine the specificity of the immunoassay for the JWH synthetic cannabinoids, metabolites and selected molecules. The results of this study are presented in Tables 1 to 3, cross-reactivity being calculated according to the following formula: %CR = […] /IC50,CR X 100 [formula] Where %CR is the percentage cross-reactivity, IC50, YWH-018 is the concentration of JWH-018 that causes 50% displacement of signal and IC50, CR is the concentration of JWH synthetic cannabinoid/metabolite/selected molecule that causes 50% displacement of signal.
Table 1: Data generated from a competitive microtiter plate assay for JWH synthetic cannabinoids and metabolites, employing antiserum raised to Immunogen II (Hapten B-BTG) and conjugate (Hapten A-HRP) as detection reagent. (b) In a similar manner to that described in Example 19(a), the wells of a 96 well microtiter plate were coated with the Ig fraction of the antiserum raised to Immunogen II ([…]). Conjugate (Hapten A-HRP) was employed as a detection reagent. […]

[2] = tested on: Antibody to Immunogen VIII; assay type: binding, sheep
[3] = Table 2, 40 ng/ml highest concentration tested
[4] = Table 2, CR based on 100% for JWH-018
[5] = Cross-reactants at 100 ng/ml, Antibody to Immunogen VIII

| Compound | IC50 [1, 3] | % Cross-reactivity [1, 4] | %B/B0 [2, 5] | binding to the antibody produced from Immunogen I [1] | further results |
| --- | --- | --- | --- | --- | --- |
| O=C(c1cccc2ccccc12)c1c[nH]c2ccccc12 [3-(1-naphthoyl)-1H-Indole, 3-(1-naphthoyl)-1H-indole] | 3.84 ng/mL | 70.57% | 90.49% | – | – |
| CCCCCn1cc(C(=O)c2cccc3ccccc23)c2ccc(O)cc21 [JWH-018 6-hydroxyindole metabolite] | 2.04 ng/mL | 132.84% | 89.86% | able to bind | – |
| O=C(c1cccc2ccccc12)c1cn(CCN2CCOCC2)c2ccccc12 [WIN 55,225 (other name JWH-200), JWH-200] | 0.31 ng/mL | 874.19% | 98.81% | – | – |
| O=C(O)CCCCn1cc(C(=O)c2cccc3ccccc23)c2ccccc21 [JWH-018 N-pentanoic acid metabolite] | 0.42 ng/mL | 645.24% | 100.31% | – | – |
| CCCCCn1cc(C(=O)c2cccc3ccccc23)c2ccccc21 [JWH-018] | 2.71 ng/mL | 100.00% | 17.66% | able to bind | IC50 ([1]; first Table 4, Immunogen I): 2.30 ng/mL; % Cross-reactivity ([1]; first Table 4, Immunogen I, JWH-018 = 100): 100.00%; %B/B0 ([2]; JWH-018 standard 1 ng/ml): 79%; %B/B0 ([2]; JWH-018 standard 3 ng/ml): 63%; %B/B0 ([2]; JWH-018 standard 5 ng/ml): 51%; %B/B0 ([2]; JWH-018 standard 10 ng/ml): 40%; %B/B0 ([2]; JWH-018 standard 20 ng/ml): 29%; %B/B0 ([2]; JWH-018 standard 40 ng/ml): 22%; %B/B0 ([2]; JWH-018 standard 80 ng/ml): 16%; IC50 ([2]; Table 3c standard curve, standard concentration which produces 50% B/B0): 5.230 ng/mL |
| CCCCCn1cc(C(=O)c2ccc(Cl)c3ccccc23)c2ccccc21 [JWH-398] | – | << 6.78% | 18.66% | – | IC50 ng/ml [1, 3]: >> 40 ng/ml |
| CCCCn1cc(C(=O)c2cccc3ccccc23)c2ccccc21 [JWH-073] | 0.93 ng/mL | 291.40% | 25.50% | – | – |
| O=C(c1cccc2ccccc12)c1cn(CCCCCO)c2ccccc12 [JWH-018 N-(5-hydroxypentyl) metabolite] | 0.18 ng/mL | 1505.56% | 57.37% | – | – |
| CCCCCn1cc(C(=O)c2cccc3ccccc23)c2cc(O)ccc21 [JWH-018 5-hydroxyindole metabolite] | 0.39 ng/mL | 694.87% | 87.67% | able to bind | – |
| CCCCCn1cc(C(=O)c2cccc3ccccc23)c2c(O)cccc21 [JWH-018 4-hydroxyindole metabolite] | 25.51 ng/mL | 10.62% | 16.72% | – | – |
